Laboratory results taken from ChEMBL document CHEMBL5518181, “Studies of antibacterial activity (in vitro and in vivo) and mode of action for des-acyl tridecaptins (DATs)” (Eur J Med Chem, 2024).
In brackets after ≈: the same amount, converted by molar mass.

Columns and labels:
[1] = Hemolytic activity in human red blood cells at 400 ug/ml incubated for 45 mins by spectrophotometric analysis relative to control; format: toxicity, cell-based, Erythrocyte; conditions: red blood cells (erythrocytes), at 400 µg/mL, read-out: Activity
[2] = Binding affinity to gram negative bacterial lipid II assessed as dissociation constant by ITC analysis; set-up: species or system Bacteria
[3] = Cytotoxicity against human HepG2 cells incubated for 40 hrs by celltiter-glo luminescent cell viability assay; format: toxicity, cell-based
[4] = test system: Klebsiella pneumoniae; assay: Antibacterial activity against wild-type Klebsiella pneumoniae ATCC 13883 assessed as inhibition of bacterial growth incubated for 18 hrs; format: functional; conditions: read-out: MIC100
[5] = test system: Escherichia coli; assay: Antibacterial activity against wild-type Escherichia coli ATCC 25922 assessed as inhibition of bacterial growth incubated for 18 hrs; format: functional; conditions: read-out: MIC100
[6] = test system: Pseudomonas aeruginosa; assay: Antibacterial activity against wild-type Pseudomonas aeruginosa PAO1 assessed as inhibition of bacterial growth incubated for 24 hrs; format: functional; conditions: read-out: MIC100
[7] = test system: Acinetobacter baumannii; assay: Antibacterial activity against wild-type Acinetobacter baumannii ATCC 19606 assessed as inhibition of bacterial growth incubated for 20 hrs; format: functional; conditions: read-out: MIC100
[8] = Hydrophobicity of compound assessed as %MeCN at peak elution by RP-HPLC analysis; format: physicochemical
[9] = test system: Escherichia coli; assay: Antibacterial activity against Escherichia coli ATCC 25922 harboring tolC knock-out assessed as inhibition of bacterial growth incubated for 18 hrs; format: functional; conditions: read-out: MIC100
[10] = test system: Klebsiella pneumoniae; assay: Antibacterial activity against wild-type Klebsiella pneumoniae ATCC 13883 assessed as inhibition of bacterial growth incubated for 18 hrs in presence of 50% heat inactivated human serum; format: functional; conditions: read-out: MIC100
[11] = test system: Staphylococcus aureus; assay: Antibacterial activity against […] assessed as inhibition of bacterial growth incubated for 18 hrs; format: functional; conditions: ATCC 29213, read-out: MIC100
[12] = test system: Escherichia coli; assay: Antibacterial activity against wild-type Escherichia coli ATCC 25922 assessed as inhibition of bacterial growth incubated for 18 hrs in presence of 50% heat inactivated human serum; format: functional; conditions: read-out: MIC100
[13] = test system: Escherichia coli; assay: Antibacterial activity against Escherichia coli ATCC 25922 harboring hldE knock-out assessed as inhibition of bacterial growth incubated for 18 hrs; format: functional; conditions: read-out: MIC100
[14] = test system: Lipopolysaccharide (LPS); assay: Binding affinity to Escherichia coli O55:B5 LPS assessed as dissociation constant by ITC analysis; format: subcellular
[15] = test system: Escherichia coli; assay: Antibacterial activity against wild-type Escherichia coli ATCC 25922 assessed as inhibition of bacterial growth by measuring fold increase in MIC incubated for 18 hrs in presence of 50% heat inactivated human serum relative to control; format: functional

Structure (SMILES) | Kd [2] [nM] | MIC [4] [µg/mL] | MIC [5] [µg/mL] | hemolysis at 0.75 h, 400 ug/ml [1] [%] | IC50 at 40 h [3] [µg/mL] | MIC [6] [µg/mL] | MIC [7] [µg/mL] | MeCN percentage at peak elution [8] [%] | MIC [9] [µg/mL] | MIC [10] [µg/mL] | MIC [11] [µg/mL] | MIC [12] [µg/mL] | MIC [13] [µg/mL] | Kd [14] [nM] | fold change (FC) [15]
CC(C)[C@H](NC(=O)[C@H](CCC(=O)O)NC(=O)[C@H](Cc1ccccc1)NC(=O)[C@@H](CCN)NC(=O)[C@H](CCN)NC(=O)[C@H](CO)NC(=O)[C@@H](Cc1c[nH]c2ccccc12)NC(=O)[C@@H](CO)NC(=O)CNC(=O)[C@@H](CCN)NC(=O)[C@H](N)C(C)C)C(=O)N[C@@H](C(=O)N[C@@H](C)C(N)=O)C(C)(C)C | 330 | 2 (≈ 1.44 µM) | 16 (≈ 11.5 µM) | 1.6 | 127 (≈ 91.1 µM) |  |  |  |  |  |  |  |  |  | 
CC[C@H](C)[C@@H](NC(=O)[C@@H](NC(=O)[C@H](CCC(=O)O)NC(=O)[C@H](Cc1ccccc1)NC(=O)[C@@H](CCN)NC(=O)[C@H](C)NC(=O)[C@H](CO)NC(=O)[C@@H](Cc1c[nH]c2ccccc12)NC(=O)[C@@H](CO)NC(=O)CNC(=O)[C@@H](CCN)NC(=O)[C@H](NC(=O)[C@H](C)N)C(C)C)C(C)C)C(=O)N[C@@H](C)C(=O)O | 3700 | 4 (≈ 2.78 µM) | 8 (≈ 5.57 µM) | 7.9 | 121 (≈ 84.2 µM) | > 64 | 32 (≈ 22.3 µM) | 44.3 | 8 (≈ 5.57 µM) | 16 | > 64 | 8 | 4 (≈ 2.78 µM) |  | 
CC[C@H](N)C(=O)N[C@@H](C(=O)N[C@H](CCN)C(=O)NCC(=O)N[C@H](CO)C(=O)N[C@H](Cc1c[nH]c2ccccc12)C(=O)N[C@@H](CO)C(=O)N[C@@H](CCN)C(=O)N[C@H](CCN)C(=O)N[C@@H](Cc1ccccc1)C(=O)N[C@@H](CCC(=O)O)C(=O)N[C@H](C(=O)N[C@@H](C(=O)N[C@@H](C)C(=O)O)[C@@H](C)CC)C(C)C)C(C)C |  | 2 (≈ 1.35 µM) | 2 (≈ 1.35 µM) | 8.8 | 95 (≈ 64.2 µM) | 64 (≈ 43.3 µM) | 64 (≈ 43.3 µM) | 40.7 | 1 (≈ 0.676 µM) | 0.5 | > 64 | 1 | 1 (≈ 0.676 µM) |  | 2
CC[C@H](C)[C@@H](NC(=O)[C@@H](NC(=O)[C@H](CCC(=O)O)NC(=O)[C@H](Cc1ccccc1)NC(=O)[C@@H](CCN)NC(=O)[C@H](CCN)NC(=O)[C@H](CO)NC(=O)[C@@H](Cc1c[nH]c2ccccc12)NC(=O)[C@@H](CO)NC(=O)CNC(=O)[C@@H](CCN)NC(=O)[C@H](NC(=O)[C@@H]1CCCN1)C(C)C)C(C)C)C(=O)N[C@@H](C)C(=O)O |  | 4 (≈ 2.68 µM) | 4 (≈ 2.68 µM) | 5.5 | 109 (≈ 73.1 µM) | > 64 | 64 (≈ 42.9 µM) | 41.9 | 2 (≈ 1.34 µM) | 1 | > 64 | 1 | 2 (≈ 1.34 µM) |  | 2
CC[C@H](C)[C@@H](NC(=O)[C@@H](NC(=O)[C@H](CCC(=O)O)NC(=O)[C@H](Cc1ccccc1)NC(=O)[C@@H](CCN)NC(=O)[C@H](CCN)NC(=O)[C@H](CO)NC(=O)[C@@H](Cc1c[nH]c2ccccc12)NC(=O)[C@@H](CO)NC(=O)CNC(=O)[C@@H](CCN)NC(=O)[C@H](NC(=O)[C@H](C)N)C(C)C)C(C)(C)C)C(=O)N[C@@H](C)C(N)=O | 2150 | 8 (≈ 5.41 µM) | 16 (≈ 10.8 µM) | 6 | > 170 | > 64 | 64 (≈ 43.3 µM) | 41.8 | 0.5 (≈ 0.338 µM) | 0.125 | > 64 | 2 | > 64 |  | 8
CC[C@H](C)[C@@H](NC(=O)[C@@H](NC(=O)[C@H](CCC(=O)O)NC(=O)[C@H](Cc1ccccc1)NC(=O)[C@@H](CCN)NC(=O)[C@H](CCN)NC(=O)[C@H](CO)NC(=O)[C@@H](Cc1c[nH]c2ccccc12)NC(=O)[C@@H](CO)NC(=O)CNC(=O)[C@@H](CCN)NC(=O)[C@H](NC(=O)[C@H](C)N)C(C)C)C(C)C)C(=O)N[C@@H](C)C(N)=O | 770 | 32 (≈ 21.8 µM) | 8 (≈ 5.46 µM) | 1.5 | > 170 |  |  |  |  |  |  |  |  |  | 
CC[C@H](C)[C@@H](NC(=O)[C@@H](NC(=O)[C@H](CCC(=O)O)NC(=O)[C@H](Cc1ccccc1)NC(=O)[C@@H](CCN)NC(=O)[C@H](CCN)NC(=O)[C@H](CO)NC(=O)[C@@H](Cc1c[nH]c2ccccc12)NC(=O)[C@@H](CO)NC(=O)CNC(=O)[C@@H](CCN)NC(=O)[C@H](NC(=O)CCN)C(C)C)C(C)C)C(=O)N[C@@H](C)C(=O)O | 390 | 2 (≈ 1.36 µM) | ≥ 2 | 0 | > 170 | 8 (≈ 5.46 µM) | 32 (≈ 21.8 µM) | 39.8 | 0.5 (≈ 0.341 µM) |  | 64 (≈ 43.7 µM) |  | 0.5 (≈ 0.341 µM) |  | 
CC[C@H](C)[C@@H](NC(=O)[C@@H](NC(=O)[C@H](CCC(=O)O)NC(=O)[C@H](Cc1ccccc1)NC(=O)[C@@H](CCN)NC(=O)[C@H](CCN)NC(=O)[C@H](CO)NC(=O)[C@@H](Cc1c[nH]c2ccccc12)NC(=O)[C@@H](CO)NC(=O)CNC(=O)[C@@H](CCN)NC(=O)[C@H](NC(=O)CCCCCN)C(C)C)C(C)C)C(=O)N[C@@H](C)C(=O)O |  | 32 (≈ 21.2 µM) | 64 (≈ 42.4 µM) | 3.5 | > 170 | > 64 | 64 (≈ 42.4 µM) | 40.1 | 32 (≈ 21.2 µM) | 2 | > 64 | 2 | 8 (≈ 5.31 µM) |  | 8
CC[C@H](C)[C@@H](NC(=O)[C@@H](NC(=O)[C@H](CCC(=O)O)NC(=O)[C@H](Cc1ccccc1)NC(=O)[C@@H](CCN)NC(=O)[C@H](CCN)NC(=O)[C@H](CO)NC(=O)[C@@H](Cc1c[nH]c2ccccc12)NC(=O)[C@@H](CO)NC(=O)CNC(=O)[C@@H](CCN)NC(=O)[C@H](NC(=O)[C@@H](N)C(C)C)C(C)C)C(C)C)C(=O)N[C@@H](C)C(=O)O |  | 2 (≈ 1.34 µM) | 2 (≈ 1.34 µM) | 14.6 | 87 (≈ 58.2 µM) | 64 (≈ 42.8 µM) | 64 (≈ 42.8 µM) | 41.5 | 1 (≈ 0.669 µM) | 0.5 | > 64 | 1 | 32 (≈ 21.4 µM) |  | 2

Now from value to compound, other results behind:

Kd [2] [nM] | MIC [4] [µg/mL] | MIC [5] [µg/mL] | Structure (SMILES) | hemolysis at 0.75 h, 400 ug/ml [1] [%] | IC50 at 40 h [3] [µg/mL] | MIC [6] [µg/mL] | MIC [7] [µg/mL] | MeCN percentage at peak elution [8] [%] | MIC [9] [µg/mL] | MIC [10] [µg/mL] | MIC [11] [µg/mL] | MIC [12] [µg/mL] | MIC [13] [µg/mL] | Kd [14] [nM] | fold change (FC) [15]
1220 | > 64 | > 64 | CC[C@H](C)[C@@H](NC(=O)[C@@H](NC(=O)[C@H](C)NC(=O)[C@H](Cc1ccccc1)NC(=O)[C@@H](CCN)NC(=O)[C@H](CCN)NC(=O)[C@H](CO)NC(=O)[C@@H](Cc1c[nH]c2ccccc12)NC(=O)[C@@H](CO)NC(=O)CNC(=O)[C@@H](CCN)NC(=O)[C@H](N)C(C)C)C(C)C)C(=O)N[C@@H](C)C(=O)O | 0 | > 170 |  |  |  |  |  |  |  |  |  | 
230 | > 64 | > 64 | CC[C@H](C)[C@@H](NC(=O)[C@@H](NC(=O)[C@H](CCC(=O)O)NC(=O)[C@H](Cc1ccccc1)NC(=O)[C@@H](CCN)NC(=O)[C@H](CCN)NC(=O)[C@H](CO)NC(=O)[C@@H](Cc1c[nH]c2ccccc12)NC(=O)[C@@H](CO)NC(=O)CNC(=O)[C@@H](CCN)NC(=O)[C@H](N)C(C)C)C(C)C)C(=O)O | 1 | > 170 |  |  |  |  |  |  |  |  |  | 
580 | 64 (≈ 45.9 µM) | 16 (≈ 11.5 µM) | CC[C@@H](C)[C@@H](NC(=O)[C@@H](NC(=O)[C@H](CCC(=O)O)NC(=O)[C@H](Cc1ccccc1)NC(=O)[C@@H](CCN)NC(=O)[C@H](CCN)NC(=O)[C@H](CO)NC(=O)[C@@H](Cc1c[nH]c2ccccc12)NC(=O)[C@@H](CO)NC(=O)CNC(=O)[C@@H](CCN)NC(=O)[C@H](N)C(C)C)C(C)C)C(=O)N[C@@H](C)C(N)=O | 0.4 | > 170 |  |  |  |  |  |  |  |  | 11400 | 
800 | > 64 | > 64 | CC[C@H](C)[C@@H](NC(=O)[C@@H](NC(=O)[C@H](CCC(=O)O)NC(=O)[C@H](Cc1ccccc1)NC(=O)[C@@H](CCN)NC(=O)[C@H](CCN)NC(=O)[C@H](CCN)NC(=O)[C@@H](Cc1c[nH]c2ccccc12)NC(=O)[C@@H](CO)NC(=O)CNC(=O)[C@@H](CCN)NC(=O)[C@H](N)C(C)C)C(C)C)C(=O)N[C@@H](C)C(=O)O | 1.1 | > 170 |  |  |  |  |  |  |  |  |  | 
1170 | > 64 | > 64 | CC[C@H](C)[C@@H](NC(=O)[C@@H](NC(=O)[C@H](CCC(=O)O)NC(=O)[C@H](Cc1ccccc1)NC(=O)[C@@H](CN)NC(=O)[C@H](CCN)NC(=O)[C@H](CO)NC(=O)[C@@H](Cc1c[nH]c2ccccc12)NC(=O)[C@@H](CO)NC(=O)CNC(=O)[C@@H](CCN)NC(=O)[C@H](N)C(C)C)C(C)C)C(=O)N[C@@H](C)C(=O)O | 1.6 | > 170 |  |  |  |  |  |  |  |  |  | 
1400 | > 64 | ≥ 32 | CC[C@H](C)[C@@H](NC(=O)[C@@H](NC(=O)[C@H](CCC(N)=O)NC(=O)[C@H](Cc1ccccc1)NC(=O)[C@@H](CCN)NC(=O)[C@H](CCN)NC(=O)[C@H](CO)NC(=O)[C@@H](Cc1c[nH]c2ccccc12)NC(=O)[C@@H](CO)NC(=O)CNC(=O)[C@@H](CCN)NC(=O)[C@H](N)C(C)C)C(C)C)C(=O)N[C@@H](C)C(=O)O | 2.1 | 41 (≈ 29.4 µM) |  |  |  |  |  |  |  |  |  | 
